From PubChem BioAssay AID1963825 (Molecular Pharmacology Branch, DTP, NCI, 2024)
Several values for one entry are separate records, joined by “and”; a condition that tells them apart may be missing. Equal entries are not always repeated.

Test: Anticancer human tumor 997537-175-T-J1-PDC patient-derived colon adenocarcinoma cell line growth inhibition [POLQ]
Settings: 997537-175-T-J1-PDC complex spheroid viability, combination with POLQ inhibitors; for viability, T/C: stronger effect = lower value; active means viability on the fitted dose curve at most 10% of control; inactive means the rest
Summary of the method: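 PDC + HUVEC + MSC complex spheroids; POLQ inhibitors ± partner drugs; top conc. at/near clinical Cmax, else 10 microM (SN-38 1 microM), half-log dilutions; 37 degrees C, 5% CO2.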

[1] = curve of first compound, second compound 0.0316 µM
[2] = curve of first compound, second compound 0.1 µM
[3] = curve of first compound, second compound 0.316 µM
[4] = curve of first compound, second compound 1 µM
[5] = curve of first compound, second compound 3.16 µM
[6] = curve of first compound, second compound 10 µM
[7] = second compound 0.0316 µM, first compound 0.000316 µM
[8] = second compound 0.0316 µM, first compound 0.001 µM
[9] = second compound 0.0316 µM, first compound 0.00316 µM
[10] = second compound 0.0316 µM, first compound 0.01 µM
[11] = second compound 0.0316 µM, first compound 0.0316 µM
[12] = second compound 0.0316 µM, first compound 0.1 µM
[13] = second compound 0.1 µM, first compound 0.000316 µM
[14] = second compound 0.1 µM, first compound 0.001 µM
[15] = second compound 0.1 µM, first compound 0.00316 µM
[16] = second compound 0.1 µM, first compound 0.01 µM
[17] = second compound 0.1 µM, first compound 0.0316 µM
[18] = second compound 0.1 µM, first compound 0.1 µM
[19] = second compound 0.316 µM, first compound 0.000316 µM
[20] = second compound 0.316 µM, first compound 0.001 µM
[21] = second compound 0.316 µM, first compound 0.00316 µM
[22] = second compound 0.316 µM, first compound 0.01 µM
[23] = second compound 0.316 µM, first compound 0.0316 µM
[24] = second compound 0.316 µM, first compound 0.1 µM
[25] = second compound 1 µM, first compound 0.000316 µM
[26] = second compound 1 µM, first compound 0.001 µM
[27] = second compound 1 µM, first compound 0.00316 µM
[28] = second compound 1 µM, first compound 0.01 µM
[29] = second compound 1 µM, first compound 0.0316 µM
[30] = second compound 1 µM, first compound 0.1 µM
[31] = second compound 3.16 µM, first compound 0.000316 µM
[32] = second compound 3.16 µM, first compound 0.001 µM
[33] = second compound 3.16 µM, first compound 0.00316 µM
[34] = second compound 3.16 µM, first compound 0.01 µM
[35] = second compound 3.16 µM, first compound 0.0316 µM
[36] = second compound 3.16 µM, first compound 0.1 µM
[37] = second compound 10 µM, first compound 0.000316 µM
[38] = second compound 10 µM, first compound 0.001 µM
[39] = second compound 10 µM, first compound 0.00316 µM
[40] = second compound 10 µM, first compound 0.01 µM
[41] = second compound 10 µM, first compound 0.0316 µM
[42] = second compound 10 µM, first compound 0.1 µM
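Further: luminescence signal used as a surrogate for viable cells; spheroids exposed to drugs for seven days before readout.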

O=C(Nc1ccc(O)c(NS(=O)(=O)c2ccc(F)cc2)c1)c1ccc(-c2ccccc2)cc1
> 10000 nM: IC50 (curve of compound)
inactive: viability, T/C (compound 0.0316 µM) 103% and 89.4% and 123% | viability, T/C (compound 0.1 µM) 101% and 92.4% and 98.4% | viability, T/C (compound 0.316 µM) 113% and 97.4% and 81.8% | viability, T/C (compound 1 µM) 88.3% and 109% and 103% | viability, T/C (compound 3.16 µM) 99.2% and 116% and 91.7% | viability, T/C (compound 10 µM) 98.9% and 103% and 91.2%

COc1cccc2c1C(=O)c1c(O)c3c(c(O)c1C2=O)CC(O)(C(=O)CO)CC3OC1CC(N)C(O)C(C)O1 (stereo not given)
3790 nM and 2410 nM and 1970 nM: IC50 (curve of compound)
active: viability, T/C (compound 10 µM) 8.92% and 9.36% and 7.86%
inactive: viability, T/C (compound 0.0316 µM) 91.6% and 101% and 113% | viability, T/C (compound 0.1 µM) 81.9% and 97% and 103% | viability, T/C (compound 0.316 µM) 87.3% and 68.5% and 110% | viability, T/C (compound 1 µM) 93.9% and 90% and 81.8% | viability, T/C (compound 3.16 µM) 57.7% and 37.8% and 27.6%

Cn1ncnc1[C@H]1c2n[nH]c(=O)c3cc(F)cc(c23)N[C@@H]1c1ccc(F)cc1 + Nc1ccc(C#CCN(C(=O)Cc2ncc(C(F)(F)F)cc2C(F)(F)F)c2ccc(F)cc2)nn1
inactive: viability, T/C [7] 98.8% | viability, T/C [8] 97.4% | viability, T/C [9] 104% | viability, T/C [10] 94.5% | viability, T/C [11] 98.1% | viability, T/C [12] 103% | viability, T/C [13] 103% | viability, T/C [14] 114% | viability, T/C [15] 99.2% | viability, T/C [16] 104% | viability, T/C [17] 95.7% | viability, T/C [18] 99% | viability, T/C [19] 100% | viability, T/C [20] 110% | viability, T/C [21] 95.6% | viability, T/C [22] 106% | viability, T/C [23] 95.3% | viability, T/C [24] 93.9% | viability, T/C [25] 105% | viability, T/C [26] 90.5% | viability, T/C [27] 89.4% | viability, T/C [28] 99.4% | viability, T/C [29] 120% | viability, T/C [30] 90.5% | viability, T/C [31] 101% | viability, T/C [32] 103% | viability, T/C [33] 86.4% | viability, T/C [34] 95.3% | viability, T/C [35] 104% | viability, T/C [36] 99.2% | viability, T/C [37] 95.4% | viability, T/C [38] 102% | viability, T/C [39] 98.6% | viability, T/C [40] 91.3% | viability, T/C [41] 103% | viability, T/C [42] 106%
> 100 nM: IC50 [1] | IC50 [2] | IC50 [3] | IC50 [4] | IC50 [5] | IC50 [6]

CC[C@@]1(O)C(=O)OCc2c1cc1n(c2=O)Cc2cc3c(CN(C)C)c(O)ccc3nc2-1 + COC1C(OC(N)=O)C(O)C(Oc2ccc3c(O)c(NC(=O)c4ccc(O)c(CC=C(C)C)c4)c(=O)oc3c2C)OC1(C)C
> 100 nM: IC50 [1] | IC50 [2] | IC50 [3] | IC50 [4] | IC50 [5] | IC50 [6]
inactive: viability, T/C [7] 102% | viability, T/C [8] 104% | viability, T/C [9] 110% | viability, T/C [10] 103% | viability, T/C [11] 90.8% | viability, T/C [12] 77.6% | viability, T/C [13] 111% | viability, T/C [14] 101% | viability, T/C [15] 111% | viability, T/C [16] 103% | viability, T/C [17] 97.2% | viability, T/C [18] 68.6% | viability, T/C [19] 96.2% | viability, T/C [20] 95% | viability, T/C [21] 116% | viability, T/C [22] 102% | viability, T/C [23] 105% | viability, T/C [24] 58.4% | viability, T/C [25] 90.8% | viability, T/C [26] 92.3% | viability, T/C [27] 99.6% | viability, T/C [28] 96.3% | viability, T/C [29] 86% | viability, T/C [30] 76.8% | viability, T/C [31] 101% | viability, T/C [32] 110% | viability, T/C [33] 107% | viability, T/C [34] 92.6% | viability, T/C [35] 81.7% | viability, T/C [36] 55.6% | viability, T/C [37] 105% | viability, T/C [38] 105% | viability, T/C [39] 107% | viability, T/C [40] 98.5% | viability, T/C [41] 98.2% | viability, T/C [42] 70.2%

CCCS(=O)(=O)Nc1ccc(F)c(C(=O)c2c[nH]c3ncc(-c4ccc(Cl)cc4)cc23)c1F
inactive: viability, T/C (compound 0.0316 µM) 97.4% and 90.7% and 82.4% | viability, T/C (compound 0.1 µM) 82.1% and 86.5% and 97.7% | viability, T/C (compound 0.316 µM) 88.1% and 82.6% and 89.7% | viability, T/C (compound 1 µM) 86.5% and 84.5% and 82.5% | viability, T/C (compound 3.16 µM) 65.1% and 72.9% and 76% | viability, T/C (compound 10 µM) 26.5% and 42% and 22.9%
4970 nM and 7510 nM and 5500 nM: IC50 (curve of compound)
